According to BindingDB's records for doi:10.1016/j.ejmech.2018.10.033 (Key Laboratory of Molecular Pharmacology and Drug …, 2019):

What was measured:
[1] = Reversal of P-gp-mediated drug resistance in human KBV cells assessed as potentiation of paclitaxel-induced cytotoxicity by measuring paclitaxel IC50 at 10 uM after 72 hrs by MTT assay (Rvb = 398.34 +/- 0.58 uM)
[2] = Reversal of P-gp-mediated drug resistance in human KBV cells assessed as potentiation of paclitaxel-induced cytotoxicity by measuring paclitaxel IC50 at 10 uM after 24 hrs by MTT assay (Rvb = 3837.57 uM)
[3] = Reversal of P-gp-mediated drug resistance in human KBV cells assessed as potentiation of paclitaxel-induced cytotoxicity by measuring paclitaxel IC50 at 10 uM after 48 hrs by MTT assay (Rvb = 1396.57 uM)
[4] = Reversal of P-gp-mediated drug resistance in human KBV cells assessed as potentiation of paclitaxel-induced cytotoxicity by measuring paclitaxel IC50 at 5 uM after 24 hrs by MTT assay (Rvb = 3837.57 uM)
[5] = Reversal of P-gp-mediated drug resistance in human KBV cells assessed as potentiation of paclitaxel-induced cytotoxicity by measuring paclitaxel IC50 at 5 uM after 48 hrs by MTT assay (Rvb = 1396.57 uM)
[6] = Reversal of P-gp-mediated drug resistance in human KBV cells assessed as potentiation of paclitaxel-induced cytotoxicity by measuring paclitaxel IC50 at 5 uM after 72 hrs by MTT assay (Rvb = 398.34 +/- 0.58 uM)
[7] = Reversal of P-gp-mediated drug resistance in human KBV cells assessed as potentiation of paclitaxel-induced cytotoxicity by measuring paclitaxel IC50 at 10 uM

SMILES	IC50 [1] [µM]	IC50 [2] [µM]	IC50 [3] [µM]	IC50 [4] [µM]	IC50 [5] [µM]	IC50 [6] [µM]	IC50 [7] [µM]
CN(C)CCCOC(=O)[C@]12CCC(C)(C)C[C@H]1C1=CC[C@@H]3[C@@]4(C)Cc5nccnc5[C@@](C)(CO)[C@@H]4CC[C@@]3(C)[C@]1(C)CC2	0.00159	0.035	0.0172	0.0498	0.0212	0.0123	
CC1(C)CC[C@]2(C(=O)OCc3ccccc3)CC[C@]3(C)C(=CC[C@@H]4[C@@]5(C)Cc6nccnc6[C@@](C)(CO)[C@@H]5CC[C@]43C)[C@@H]2C1							0.0024
